These results are taken from BindingDB's records for doi:10.1021/jm970615f (Parke-Davis Pharmaceutical Research, 1997).

The structures appear in SMILES notation.

The first experiment addresses T1, Dimer of Gag-Pol polyprotein [489-587] (Human immunodeficiency virus 1, UniProt P12497).
T1 construct: 489-587
In words: Protease Inhibition Assay.
Details: not given
On the procedure:
For determination of IC50 values, HIV-1 protease was added to assay buffer containing inhibitor and the substrate (H-His-Lys-Ala-Arg-Val-Leu- (p-NO2) Phe-Glu-Ala-norleucine-Ser-NH2). The Leu- (p-NO2) Phe bond of the substrate was cleaved by the enzyme, and the substrate and products were separated by reversed-phase HPLC. Absorbance was measured at 220 nm, peak areas were determined, and percentage conversion to product was calculated.
For `NC(=O)CCCCC1(c2ccccc2)CC(=O)C(SCCc2ccccc2)C(=O)O1` (configuration not stated) [5-{4-hydroxy-6-oxo-2-phenyl-5-[(2-phenylethyl)sulfanyl]-3,6-dihydro-2H-pyran-2-yl}pentanamide], the IC50 (in general, the concentration that inhibits the measured activity by half) worked out at 338 nM.

In turn, `Cc1ccccc1SC1C(=O)CC(c2ccccc2)(c2ccccc2)OC1=O` (configuration not stated) [4-hydroxy-3-[(2-methylphenyl)sulfanyl]-6,6-diphenyl-5,6-dihydro-2H-pyran-2-one] had an IC50 of 388 nM. The same measure, in the same setting: the figure for `Cc1ccc(C(C)C)c(SC2C(=O)C[C@](CCc3ccccc3)(c3ccccc3)OC2=O)c1` (stereo partly drawn) [(6R)-4-hydroxy-3-{[5-methyl-2-(propan-2-yl)phenyl]sulfanyl}-6-phenyl-6-(2-phenylethyl)-5,6-dihydro-2H-pyran-2-one] is 130 nM; for `O=C1CC(c2ccccc2)(c2ccncc2)OC(=O)C1SCCc1ccccc1` (configuration not stated) [5,6-Dihydro-4-hydroxy-6-phenyl-3-[(2-phenylethyl)thio]-6-pyridin-4-yl-2H-pyran-2-one] it is 790 nM. The same measure, in the same setting: the figure for `O=C1CC(COc2ccccc2)(c2ccccc2)OC(=O)C1SCc1ccccc1` (configuration not stated) [5,6-Dihydro-4-hydroxy-6-phenoxymethyl-6-phenyl-3-[(phenylmethyl)thio]-2H-pyran-2-one] is 172 nM.

For `CCCCCC1(CCCCC)CC(=O)C(SCc2ccccc2)C(=O)O1` (configuration not stated) [3-(Benzylsulfanyl)-4-hydroxy-6,6-dipentyl-5,6-dihydro-pyran-2-one], the IC50 worked out at 327 nM.

Take `O=C1CC(c2ccccc2)(c2ccccc2)OC(=O)C1Sc1ccccc1C1CCCCC1` (configuration not stated) [3-[(2-Cyclohexylphenyl)sulfanyl]-5,6-dihydro-4-hydroxy-6,6-diphenyl-2H-pyran-2-one]: 127 nM corresponded to half-maximal inhibition (IC50). `O=C1CC(CCc2ccccc2)(c2ccccc2)OC(=O)C1Sc1ccccc1C1CCCCC1` (configuration not stated) [3-[(2-cyclohexylphenyl)sulfanyl]-4-hydroxy-6-phenyl-6-(2-phenylethyl)-5,6-dihydro-2H-pyran-2-one]: the IC50 stood at 32 nM. Consider `Cc1ccc(C(C)(C)C)c(SC2C(=O)CC(c3ccccc3)(c3ccccc3)OC2=O)c1` (configuration not stated) [3-[(2-tert-butyl-5-methylphenyl)sulfanyl]-4-hydroxy-6,6-diphenyl-5,6-dihydro-2H-pyran-2-one], for which it took 12 nM to reach half-maximal inhibition (IC50). Regarding `Cc1ccccc1SC1C(=O)CC(CCc2ccccc2)(c2ccccc2)OC1=O` (configuration not stated) [4-hydroxy-3-[(2-methylphenyl)sulfanyl]-6-phenyl-6-(2-phenylethyl)-5,6-dihydro-2H-pyran-2-one], the midpoint of inhibition, the IC50, lay at 73 nM.

The same experiment, now with this note: pH 4.7; 37 °C.
In turn, `O=C1CC(c2ccccc2)(c2ccccc2)OC(=O)C1SCc1ccccc1` (configuration not stated) [5,6-Dihydro-4-hydroxy-6,6-diphenyl-3-[(phenylmethyl)thio]-2H-pyran-2-one] came in with an IC50 of 262 nM. Turning to `O=C1CC(CC2CCCCC2)(c2ccccc2)OC(=O)C1SCc1ccccc1` (configuration not stated) [6-(Cyclohexylmethyl)-5,6-dihydro-4-hydroxy-6-phenyl-3-[(phenylmethyl)thio]-2H-pyran-2-one], the midpoint of inhibition, the IC50, lay at 137 nM.

As for `CC(C)CCC1(c2ccccc2)CC(=O)C(Sc2ccccc2)C(=O)O1` (configuration not stated) [5,6-Dihydro-4-hydroxy-6-(3-methylbutyl)-6-phenyl-3-(phenylthio)-2H-pyran-2-one], half-maximal inhibition (IC50) required 1400 nM. With `NC(=O)CCCC1(c2ccccc2)CC(=O)C(SCCc2ccccc2)C(=O)O1` (configuration not stated) [4-(3,6-Dihydro-4-hydroxy-6-oxo-2-phenyl-5-[(phenylethyl)thio]-2H-pyran-2-yl)butyramide], the IC50 was 1300 nM.

In turn, `CCCC1(c2ccccc2)CC(=O)C(SCCc2ccccc2)C(=O)O1` (configuration not stated) [5,6-Dihydro-4-hydroxy-6-phenyl-3-[(2-phenylethyl)thio]-6-propyl-2H-pyran-2-one] gave a concentration for half-maximal inhibition (IC50) of 5100 nM. As to `CCCC1(c2ccccc2)CC(=O)C(SCc2ccccc2)C(=O)O1` (configuration not stated) [5,6-Dihydro-4-hydroxy-6-phenyl-3-[(phenylmethyl)thio]-6-propyl-2H-pyran-2-one], the half-inhibitory concentration (IC50) amounted to 290 nM. For the compound `CC(C)CC1(c2ccccc2)CC(=O)C(SCCc2ccccc2)C(=O)O1` (configuration not stated) [5,6-Dihydro-4-hydroxy-6-(2-methylpropyl)-6-phenyl-3-[(2-phenylethyl)thio]-2H-pyran-2-one], the IC50 stood at 1200 nM.
